From US20220008401A1, “COMPOSITIONS AND METHODS FOR TREATING PULMONARY DISEASE WITH MATRIX METALLOPROTEINASE INHIBITORS” (DARSHA LLC, priority 2019, published 2022)

What was measured:
[1] = Presence of aerosolized Compound 1 in lung of LPS-injured mice; type: in vivo, C57BL/6J mice; conditions: single aerosolized dose 35 mg/kg, one hour following nebulization
Procedure: (§1) MMP 9 was selected as a target as it is a well-established mediator of inflammation in lung injury. 12-week-old male C57BL/6J mice were intranasally instilled with LPS (1.5 mg/kg of 1 mg/ml solution in sterile PBS). 24 hours later, these mice received a single dose of aerosolized MMP inhibitor (Compound 1, dissolved in PBS, 35 mg/kg) or PBS alone. One hour following nebulization, the mice were sacrificed and assessed for MMP activity in both the bronchoalveolar lavage fluid (BALF) and lung tissue homogenate obtained from treated mice. One hour following nebulization of Compound 1, the presence of the aerosolized Compound 1 in the lung was confirmed at concentrations >100 ng/g of tissue. MMP activity in BALF was determined using a commercially available MMP 9 Quantikine assay from R&D systems.

LPS injured mice = experiment: Pulmonary wet to dry ratio (edema), LPS-injured mice, single inhaled dose; type: in vivo, C57BL/6J mice; conditions: LPS 1.5 mg/kg; 24 hours later single aerosolized dose 35 mg/kg; right middle lobe; n=3/group (control 4.1, LPS 12.9)
Procedure: We next determined if inhaled Compound 1 attenuated specific features of acute inflammatory lung injury that were also observed in response to LPS. Again, 12-week-old male C57BL/6J mice were intranasally instilled with LPS (1.5 mg/kg of 1 mg/ml solution in sterile PBS). 24 hours later, these mice received a single dose of aerosolized MMP inhibitor (Compound 1, dissolved in PBS, 35 mg/kg) or PBS alone and a tail vein injection of FITC labeled albumin (FITC-albumin). One hour following nebulization, the mice were sacrificed. The left lung was fixed in formalin from each animal, paraffin embedded, sectioned and stained with H&E to examine histological features indicative of lung injury. These were achieved by visually scoring each slide based on a lung injury scoring system developed by the American Thoracic Society for animal models of inflammatory lung injury.
Edema was also assessed by determination of pulmonary wet to dry ratios. At the time of sacrifice the right middle lobe was removed from each animal and promptly weighed to obtain the wet weight. Thereafter, the lung tissue was dried in an oven at 65° C. for 72 hours and then weighed to obtain the dry weight.

caspase 3/7 = experiment: Caspase 3/7 activity assay on lung homogenate of LPS-injured mice; type: in vivo; conditions: LPS-CGS group, four inhaled doses q6h starting 24 hours after LPS, n≥4 (LPS-PBS 0.81±1.15)
Procedure: It was also examined if Compound 1 would reduce the levels of apoptosis associated with injury by LPS. Because the time line of apoptosis takes hours, an additional set of mice were injured with LPS (1.5 mg/kg of 1 mg/ml solution in sterile PBS) followed by initiation of treatment with Compound 1 twenty four hours later. The mice received four doses of Compound 1 (one dose every six hours over a total duration of 24 hours in accordance with the treatment schedule described below with reference to FIG. 8B). The mice were sacrificed and their lungs were harvested and assessed for caspase 3 activity by western blot for cleaved caspase 3 and a caspase 3/7 activity assay obtained from ThermoFisher.
FIG. 5B is the relative densitometric quantification of western blots for cleaved caspase 3: whole caspase ratio. […] FIG. 5C depicts the results of the caspase 3/7 activity assay performed on mouse lung homogenate. […] The increase in caspase 3/7 activity was attenuated by inhaled treatment with Compound 1. FIG. 5D depicts 20× images (570A, 570B, and 570C) of representative sections of lung tissue fluorescently stained for cleaved caspase-3 (red) and cell nuclei (blue) in a control lung tissue (570A), a lung tissue of a mouse treated with LPS only (570B), and lung tissue of a mouse treated with LPS and Compound 1 (570C) (n=3).

human neutrophils = experiment: Human neutrophil migration in modified Boyden chamber (FMLP chemoattractant); type: cell-based; conditions: for neutrophil migration into the basal chamber: 1 hour
Procedure: To determine if this effect was relevant in humans we utilized a modified Boyden chamber to assess the effect of Compound 1 on migration of human neutrophils. […] The basal chamber was filled with media containing the chemoattractant N-Formylmethionyl-leucyl-phenylalanine (FMLP) or vehicle. The apical chamber was seeded with ˜100,000 neutrophils with the addition of Compound 1 or vehicle. In the basal chamber, the neutrophils were allowed to migrate for 1 hour after which the basal chamber was fixed, stained with DAPI, and photographed. Five fields per well were imaged and the number of neutrophils counted using NIH ImageJ.

[2] = test system: mice exposed to cigarette smoke; experiment: Cigarette smoke exposure model, BALF total cell counts; type: in vivo; conditions: cigarette smoke 10 days; inhaled Compound 1 once a day for last four days; sacrifice 1 hour after final dose
Procedure: In order to determine if the observed effects of Compound 1 were specific to a model of acute lung injury, we exposed mice to cigarette smoke, a more chronic model of lung injury, for 10 days while treating once a day with inhaled Compound 1 for the last four days of smoke exposure. Mice were sacrificed 1 hour following their final dose of Compound 1 on the 10th day. BALF was collected and total cell counts were performed. […] (*p<0.05).

MMP 9 [3] = biological target: T1, MMP 9 (Mus musculus, UniProt P41245); experiment: MMP-9 Quantikine assay on lung homogenates of LPS-injured mice; type: in vivo; set-up: One-hour post-Compound 1 treatment lung homogenates were collected and analyzed; from tissue; host or cells: lung tissue homogenate of LPS-injured mice
T1 sequence (P41245 108-730): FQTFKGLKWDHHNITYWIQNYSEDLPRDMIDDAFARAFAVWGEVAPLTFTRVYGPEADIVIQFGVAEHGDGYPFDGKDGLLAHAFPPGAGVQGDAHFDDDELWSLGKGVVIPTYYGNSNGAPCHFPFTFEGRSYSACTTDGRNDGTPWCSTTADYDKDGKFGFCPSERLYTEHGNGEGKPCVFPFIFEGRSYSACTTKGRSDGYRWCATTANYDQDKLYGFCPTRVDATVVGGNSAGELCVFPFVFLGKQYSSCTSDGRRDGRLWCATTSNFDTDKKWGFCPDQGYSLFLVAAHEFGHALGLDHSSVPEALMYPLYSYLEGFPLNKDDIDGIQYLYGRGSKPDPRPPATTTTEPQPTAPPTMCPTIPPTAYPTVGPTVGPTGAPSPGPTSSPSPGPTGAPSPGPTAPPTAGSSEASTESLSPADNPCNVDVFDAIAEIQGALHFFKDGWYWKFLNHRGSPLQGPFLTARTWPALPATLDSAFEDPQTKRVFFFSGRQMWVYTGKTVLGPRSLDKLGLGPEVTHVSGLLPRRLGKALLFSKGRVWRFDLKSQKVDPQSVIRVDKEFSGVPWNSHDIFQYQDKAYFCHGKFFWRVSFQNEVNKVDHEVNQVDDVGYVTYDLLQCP
Procedure: Inhibition of MMP-9 by inhaled Compound 1 treatment was assessed using a Quantikine Assay (R&D systems). Mice were injured by nasal instillation of LPS followed by treatment with inhaled PBS or Compound 1 (5 mg/mL). One-hour post-Compound 1 treatment lung homogenates were collected and analyzed.

MMP 9 [4] = biological target: T1, MMP 9; experiment: MMP 9 Quantikine assay on BALF of LPS-injured mice, single inhaled dose; type: in vivo, C57BL/6J mice; set-up: assessed for MMP activity in both the bronchoalveolar lavage fluid (BALF) and lung tissue homogenate obtained from treated mice; from tissue; host or cells: bronchoalveolar lavage fluid (BALF) of LPS-injured C57BL/6J mice; conditions: LPS 1.5 mg/kg intranasal; 24 hours later single aerosolized dose 35 mg/kg; sacrifice one hour after nebulization
Procedure: as §1

For “butanamide, N-hydroxy-2-[[(4-hydroxyphenyl)sulfonyl](3-pyridinylmethyl)amino]-3-methyl, hydrochloride, (2R) [Compound 1]”, the “concentration of aerosolized Compound 1 in the lung” value [1] was > 100 ng/g of tissue, the “pulmonary wet:dry ratio” value (LPS injured mice) was 7.3 and the “caspase 3/7 activity” value (caspase 3/7) was 0.05 ± 0.16 µM. For the same substance, the “neutrophil migration into the basal chamber” value (human neutrophils; 10 nm CGS, no FMLP, n=4) was 233±61 cells, the “neutrophil migration into the basal chamber” value (human neutrophils; 20 nm CGS, no FMLP, n=4) was 293±148 cells and the “inhibition of FMLP-induced neutrophil migration” value (human neutrophils; FMLP + 10 nm Compound 1) was “did not achieve significance”. For the same substance, the “neutrophil migration into the basal chamber” value (human neutrophils; FMLP+20 nm CGS, n=4 (FMLP alone 4280±480)) was 2819±362 cells, the “smoke induced increase in BALF cell counts” value [2] was “failed to attenuate” and the “MMP-9 activity (Quantikine)” value (MMP 9 [3]; LPS nasal instillation then inhaled Compound 1 (5 mg/mL), lung homogenates one hour post-treatment, n=6 (LPS 9260±1173, PBS 2388±370)) was 3614±442.1 RFU. For the same substance, the “MMP-9 levels in whole lung homogenate” value (MMP 9 [3]; LPS-injured, Compound 1 treated animals) was “decreased significantly” and the “MMP 9 activity in BALF” value (MMP 9 [4]) was “inhibits MMP 9 activity in the BALF”.
